Patent US20260231939A1, “ARTHROPOD CONTROL COMPOSITIONS” (Firmenich SA, priority 2022, published 2026)
Read-outs that look alike come from different tables or passages of the source.

Tested on: Aedes aegypti
Assay: Warm Body assay, mosquito landings on the baited warm body
Format: in vivo
Conditions: for pest or weed control at 16 µg/mL / pest or weed control at 400 µg/mL / pest or weed control at 10000 µg/mL: Aedes aegypti, read-out: Percentage of repellence of mosquitoes landing on the warm body; for mosquitoes that still land on the warm body: 10 mg/mL (1 mg absolute applied)
Experimental: The controlling effect according to the present invention was assessed using an adapted Warm Body assay as defined in Kröber T, Kessler S, Frei J, Bourquin M, Guerin P M. 2010. J Am Mosq Control Assoc. 26:381-386. In this in-vitro assay the number of mosquito landing on a warm body, simulating an attractive host treated with the tested stimuli, was measured in order to assess the repellence effect.
The published protocol has been adapted as the switch from Anopheles gambiae to Ae. aegypti led to a decrease of mosquitoes placed in the tested cage due to the size difference (i.e. 30 mosquitoes instead of 50) and to an increase of lighting since Ae. aegypti is a diurnal mosquitoes (i.e. 150 lux instead of 4 lux).
On the sandblasted glass Petri dish covering the warm body (28.3 cm^2), 100 μL of the compounds diluted at different concentrations in ethanol was applied. The number of mosquito landing on the warm body was counted for each stimulus. Number of landings on pure ethanol (solvent) control treatment was used to normalize the data and calculate the percentage of repellence.

[1] = more complex lactones (types A, B, C), 0.016 mg/mL
[2] = more complex lactones (types A, B, C), 0.4 mg/mL
[3] = more complex lactones (types A, B, C), 10 mg/mL
[4] = γ-lactones, 0.016 mg/mL in ethanol
[5] = γ-lactones, 0.4 mg/mL in ethanol
[6] = γ-lactones, 10 mg/mL in ethanol

Structure (SMILES)	pest or weed control at 16 µg/mL [4] [%]	pest or weed control at 400 µg/mL [5] [%]	pest or weed control at 10000 µg/mL [6] [%]	further results
O=C1CCC2(CCCCC2)O1 [1-oxaspiro[4.5]decan-2-one]	–	–	–	pest or weed control at 16 µg/mL [1]: 54%; pest or weed control at 400 µg/mL [2]: 79%; pest or weed control at 10000 µg/mL [3]: 100%
CCCCCC1C=CC(=O)O1 (stereo not drawn) [2-pentyl-2H-furan-5-one]	–	–	–	pest or weed control at 16 µg/mL [1]: 0%; pest or weed control at 400 µg/mL [2]: 53%; pest or weed control at 10000 µg/mL [3]: 100%
CC(C)C1OC(=O)C1(C)C (stereo not drawn) [3,3-dimethyl-4-propan-2-yloxetan-2-one]	–	–	–	pest or weed control at 16 µg/mL (β- and ε-lactones, 0.016 mg/mL): 36%; pest or weed control at 400 µg/mL (β- and ε-lactones, 0.4 mg/mL): < 40%; pest or weed control at 10000 µg/mL (β- and ε-lactones, 10 mg/mL): 100%
O=C1CCC2CCCCC2O1 (stereo not drawn) [3,4,4a,5,6,7,8,8a-octahydrochromen-2-one]	–	–	–	pest or weed control at 16 µg/mL [1]: 35%; pest or weed control at 400 µg/mL [2]: 90%; pest or weed control at 10000 µg/mL [3]: 100%
C=CC=CC1C(=O)OC1CCCCC (stereo not drawn) [3-buta-1,3-dienyl-4-pentyloxetan-2-one]	–	–	–	pest or weed control at 400 µg/mL (β- and ε-lactones, 0.4 mg/mL): > 80%
CCC=C1OC(=O)c2ccccc21 [3-propylidene-2-benzofuran-1-one]	–	–	–	pest or weed control at 16 µg/mL [1]: 83%; pest or weed control at 400 µg/mL [2]: 93%; pest or weed control at 10000 µg/mL [3]: 86%
CC1(C)CC=CC2(C)OC(=O)CC12 (stereo not drawn) [4,4,7a-trimethyl-3a,5-dihydro-3H-1-benzofuran-2-one]	–	–	–	pest or weed control at 16 µg/mL [1]: 83%; pest or weed control at 400 µg/mL [2]: 92%; pest or weed control at 10000 µg/mL [3]: 100%
CCCCCC1OC(=O)CC1C (stereo not drawn) [4-methyl-5-pentyloxolan-2-one]	–	–	–	pest or weed control at 16 µg/mL [1]: 36%; pest or weed control at 400 µg/mL [2]: 72%; pest or weed control at 10000 µg/mL [3]: 100%
CC/C=C\CC/C=C/C1CCC(=O)O1 (stereo not drawn) [5-[(1E,5Z)-octa-1,5-dienyl]oxolan-2-one]	52	65	97	–
CC/C=C/CCCCC1CCC(=O)O1 (stereo not drawn) [5-[(E)-oct-5-enyl]oxolan-2-one]	0	87	100	–
CC/C=C\CCCCC1CCC(=O)O1 (stereo not drawn) [5-[(Z)-oct-5-enyl]oxolan-2-one]	0	75	100	–
C=CCCC1CCC(=O)O1 (stereo not drawn) [5-but-3-enyloxolan-2-one]	57	75	100	–
CCCCC1CCC(=O)O1 (stereo not drawn) [5-butyloxolan-2-one]	41	44	100	–
CCC=CCCCCCCC1CCC(=O)O1 (stereo not drawn) [5-dec-7-enyloxolan-2-one]	17	47	85	–
CCCCCCCCCCC1CCC(=O)O1 (stereo not drawn) [5-decyloxolan-2-one]	2	14	60	–
CCC1CCC(=O)O1 (stereo not drawn) [5-ethyloxolan-2-one]	0	16	74	–
CCCCCCCC1=COC(=O)CC1 [5-heptyl-3,4-dihydro-2H-pyran-2-one]	–	–	–	pest or weed control at 16 µg/mL [1]: 0%; pest or weed control at 400 µg/mL [2]: 95%; pest or weed control at 10000 µg/mL [3]: 100%
CCCCCCCC1CCC(=O)O1 (stereo not drawn) [5-heptyloxolan-2-one]	15	28	70	–
CCCCC=CC1CCC(=O)O1 (stereo not drawn) [5-hex-1-enyloxolan-2-one]	46	87	95	–

Structure (SMILES)	pest or weed control at 16 µg/mL [4] [%]	pest or weed control at 400 µg/mL [5] [%]	pest or weed control at 10000 µg/mL [6] [%]	further results
CCC=CCCC1(C)CCC(=O)O1 (stereo not drawn) [5-hex-3-enyl-5-methyloxolan-2-one]	39	79	96	–
CCCCCCC1=COC(=O)CC1 [5-hexyl-3,4-dihydro-2H-pyran-2-one]	–	–	–	pest or weed control at 16 µg/mL [1]: 11%; pest or weed control at 400 µg/mL [2]: 75%; pest or weed control at 10000 µg/mL [3]: 98%
CCCCCCC1(C)CCC(=O)O1 (stereo not drawn) [5-hexyl-5-methyloxolan-2-one]	–	–	–	pest or weed control at 16 µg/mL [1]: 43%; pest or weed control at 400 µg/mL [2]: 75%; pest or weed control at 10000 µg/mL [3]: 97%
CCCCCCC1CCC(=O)O1 (stereo not drawn) [5-hexyloxolan-2-one]	0	69	92	–
CC1CCC(=O)O1 (stereo not drawn) [5-methyloxolan-2-one]	0	43	2	–
CCCCCCC=CC1CCC(=O)O1 (stereo not drawn) [5-oct-1-enyloxolan-2-one]	0	60	98	–
CCCCCC=CCC1CCC(=O)O1 (stereo not drawn) [5-oct-2-enyloxolan-2-one]	85	100	96	–
CCCCC=CCCC1CCC(=O)O1 (stereo not drawn) [5-oct-3-enyloxolan-2-one]	31	76	92	–
CC=CCCCCCC1CCC(=O)O1 (stereo not drawn) [5-oct-6-enyloxolan-2-one]	12	78	100	–
C=CCCCCCCC1CCC(=O)O1 (stereo not drawn) [5-oct-7-enyloxolan-2-one]	46	69	80	–
CCCCCCCCC1CCC(=O)O1 (stereo not drawn) [5-octyloxolan-2-one]	12	52	45	–
CCCC=CC1CCC(=O)O1 (stereo not drawn) [5-pent-1-enyloxolan-2-one]	52	79	100	–
CC=CCCC1CCC(=O)O1 (stereo not drawn) [5-pent-3-enyloxolan-2-one]	0	95	100	–
CCCCCC1=COC(=O)CC1 [5-pentyl-3,4-dihydro-2H-pyran-2-one]	–	–	–	pest or weed control at 16 µg/mL [1]: 60%; pest or weed control at 400 µg/mL [2]: 69%; pest or weed control at 10000 µg/mL [3]: 97%
CCCCCC1CCC(=O)O1 (stereo not drawn) [5-pentyloxolan-2-one]	9	56	99	–
CCCC1CCC(=O)O1 (stereo not drawn) [5-propyloxolan-2-one]	28	50	100	–
C=CC1CCCC(=O)O1 (stereo not drawn) [6-ethenyloxan-2-one]	–	–	–	mosquitoes that still land on the warm body: prevents any mosquito from landing; pest or weed control at 16 µg/mL (δ-lactones, 0.016 mg/mL): 31%; pest or weed control at 400 µg/mL (δ-lactones, 0.4 mg/mL): 30%; pest or weed control at 10000 µg/mL (δ-lactones, 10 mg/mL): 100%
CCC1CCCC(=O)O1 (stereo not drawn) [6-ethyloxan-2-one]	–	–	–	mosquitoes that still land on the warm body: > 50%; pest or weed control at 16 µg/mL (δ-lactones, 0.016 mg/mL): 0%; pest or weed control at 400 µg/mL (δ-lactones, 0.4 mg/mL): 11%; pest or weed control at 10000 µg/mL (δ-lactones, 10 mg/mL): 48%
CCC#CCCC1CCCC(=O)O1 (stereo not drawn) [6-hex-3-ynyloxan-2-one]	–	–	–	pest or weed control at 16 µg/mL (δ-lactones, 0.016 mg/mL): 0%; pest or weed control at 400 µg/mL (δ-lactones, 0.4 mg/mL): 80%; pest or weed control at 10000 µg/mL (δ-lactones, 10 mg/mL): 97%
